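Tested at 5 concentrations; 48 h exposure; 96-well plates; endpoints linearly interpolated, else capped at highest concentration. GI50 is the concentration that inhibits growth by half.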 Calls of active or inactive are those of the source. No stated cut-off is given here; in the data, active = GI50 up to about 1.1 µM and inactive = higher.
What was measured:
Assay in all cases: NCI-60 cell line screen, 48 h
SW-620 = tested on: SW-620
SK-MEL-5 = tested on: SK-MEL-5
U-251 = tested on: U-251
EKVX = tested on: EKVX
OVCAR-5 = tested on: OVCAR-5
OVCAR-4 = tested on: OVCAR-4
TK-10 = tested on: TK-10
A498 = tested on: A498
786-0 = tested on: 786-0
OVCAR-3 = tested on: OVCAR-3
SNB-75 = tested on: SNB-75
SK-MEL-2 = tested on: SK-MEL-2
COLO 205 = tested on: COLO 205
SNB-19 = tested on: SNB-19
HOP-92 = tested on: HOP-92
SR = tested on: SR

Measured: GI50

C[C@]12CCC(=O)C=C1CC[C@@H]1C2CC[C@]2(C)Nc3c(cnn3-c3ccccc3)CC12 (stereo partly specified)
inactive: SW-620 > 100 µM | SK-MEL-5 > 100 µM | U-251 > 100 µM | EKVX > 100 µM | OVCAR-5 > 100 µM | OVCAR-4 > 100 µM | TK-10 > 100 µM | A498 > 100 µM | 786-0 > 100 µM | OVCAR-3 > 10 µM | SNB-75 39.1 µM | SK-MEL-2 > 100 µM

CN1N=CSC12C(=O)N(c1ccccc1)C(=O)N2c1ccccc1 (stereo unspecified)
inactive: SW-620 > 100 µM | SK-MEL-5 > 100 µM | U-251 > 100 µM | EKVX > 100 µM | OVCAR-5 > 100 µM | COLO 205 > 100 µM | SNB-19 > 100 µM | OVCAR-4 82.2 µM | TK-10 > 100 µM | A498 > 100 µM | 786-0 > 100 µM | OVCAR-3 > 100 µM | SNB-75 > 100 µM | SK-MEL-2 > 100 µM

C=C1CC2(CCS(=O)(=O)c3ccccc32)OC1=O (stereo unspecified)
inactive: SW-620 3.01 µM | SK-MEL-5 12.4 µM | U-251 13.2 µM | EKVX 18 µM | HOP-92 3.72 µM | OVCAR-5 14.3 µM | COLO 205 2.99 µM | SNB-19 10.2 µM | OVCAR-4 13.7 µM | TK-10 12.9 µM | A498 17.3 µM | 786-0 4.32 µM | OVCAR-3 7.52 µM | SK-MEL-2 10.7 µM

[N-]=[N+]=Nc1ccc(S(=O)(=O)Oc2cc(OS(=O)(=O)c3ccc(N=[N+]=[N-])cc3)cc(OS(=O)(=O)c3ccc(N=[N+]=[N-])cc3)c2)cc1
inactive: SR > 100 µM | SW-620 > 10 µM | SK-MEL-5 > 100 µM | U-251 > 100 µM | EKVX > 100 µM | HOP-92 > 100 µM | OVCAR-5 > 100 µM | COLO 205 > 10 µM | SNB-19 > 10 µM | OVCAR-4 > 10 µM | TK-10 > 100 µM | A498 > 100 µM | 786-0 > 100 µM | OVCAR-3 > 100 µM | SNB-75 > 10 µM | SK-MEL-2 > 100 µM

CCC1CN2CCc3cc(OC)c(OC)cc3C2CC1CC1c2cc(OC)c(OC)cc2CCN1C(=O)C1CCCN1 (stereo unspecified)
inactive: SR 19.1 µM | SW-620 28.8 µM | SK-MEL-5 17.3 µM | U-251 23.9 µM | EKVX 36.6 µM | HOP-92 28.7 µM | OVCAR-5 53 µM | COLO 205 13 µM | SNB-19 14.9 µM | OVCAR-4 25.5 µM | TK-10 45.4 µM | A498 28.6 µM | 786-0 17.1 µM | OVCAR-3 27.4 µM | SNB-75 26 µM | SK-MEL-2 27.8 µM

N#Cc1ccccc1Nc1ccccc1S
inactive: SR 19.3 µM | SW-620 22.1 µM | SK-MEL-5 17.9 µM | U-251 > 10 µM | EKVX 57.7 µM | HOP-92 35.1 µM | OVCAR-5 29.4 µM | COLO 205 > 100 µM | SNB-19 22.5 µM | OVCAR-4 37.9 µM | TK-10 > 100 µM | A498 53.7 µM | 786-0 20.9 µM | SK-MEL-2 56.4 µM

CCN(CC)CCCN(c1cc(OC)cc2nccnc12)S(=O)(=O)c1ccc(C)cc1
inactive: SR > 100 µM | SW-620 > 100 µM | SK-MEL-5 > 100 µM | U-251 > 100 µM | EKVX > 100 µM | HOP-92 > 100 µM | OVCAR-5 > 100 µM | COLO 205 > 100 µM | SNB-19 > 100 µM | OVCAR-4 > 100 µM | TK-10 > 100 µM | A498 > 100 µM | 786-0 > 100 µM | OVCAR-3 > 100 µM | SNB-75 37.2 µM | SK-MEL-2 > 100 µM

CC1=C2CCCC2C/C(=N/Nc2ccc([N+](=O)[O-])cc2[N+](=O)[O-])CC1 (stereo unspecified)
inactive: SR > 100 µM | SW-620 > 100 µM | SK-MEL-5 > 100 µM | U-251 > 100 µM | HOP-92 > 100 µM | OVCAR-5 > 100 µM | COLO 205 > 100 µM | SNB-19 > 100 µM | OVCAR-4 > 100 µM | TK-10 > 100 µM | A498 > 100 µM | 786-0 > 100 µM | OVCAR-3 > 100 µM | SNB-75 69.7 µM | SK-MEL-2 > 100 µM

COc1nc(C(=O)O)c(Cl)c(OC)c1Cl
inactive: SR > 100 µM | SW-620 > 100 µM | SK-MEL-5 > 100 µM | EKVX > 100 µM | HOP-92 > 100 µM | OVCAR-5 > 100 µM | COLO 205 > 100 µM | SNB-19 > 100 µM | OVCAR-4 > 100 µM | TK-10 > 100 µM | A498 > 100 µM | 786-0 > 100 µM | OVCAR-3 > 100 µM | SK-MEL-2 > 100 µM

COC(=O)[C@@]12C3=NO[C@]1(C(=O)OC)C(O[Si](C)(C)C(C)(C)C)[C@@H](OC(C)=O)[C@@H](OC(C)=O)[C@@H]2[C@@H](OCc1ccccc1)CC3 (stereo partly specified)
inactive: SW-620 > 100 µM | SK-MEL-5 4.16 µM | U-251 8.99 µM | EKVX > 27.7 µM | HOP-92 2.22 µM | OVCAR-5 8.79 µM | COLO 205 > 100 µM | SNB-19 8.81 µM | OVCAR-4 4.82 µM | TK-10 > 100 µM | A498 > 85.3 µM | 786-0 14.2 µM | OVCAR-3 13.5 µM | SNB-75 8.63 µM | SK-MEL-2 8.26 µM

COc1ccc(/C=C/C(=O)c2sc(NC(=S)NC(=O)c3ccccc3F)nc2C)cc1OC
inactive: SW-620 > 100 µM | SK-MEL-5 88.3 µM | U-251 > 100 µM | EKVX > 100 µM | HOP-92 98.9 µM | OVCAR-5 > 100 µM | COLO 205 51.5 µM | SNB-19 > 100 µM | TK-10 > 100 µM | A498 > 100 µM | 786-0 > 100 µM | OVCAR-3 > 100 µM | SNB-75 26.5 µM | SK-MEL-2 > 100 µM

CC(=O)NC1=C(NCCO)C(=O)c2ccccc2C1=O
inactive: SR > 50 µM | SW-620 > 50 µM | SK-MEL-5 29.9 µM | U-251 > 50 µM | EKVX > 50 µM | COLO 205 > 50 µM | SNB-19 > 50 µM | OVCAR-4 > 50 µM | TK-10 > 50 µM | 786-0 > 50 µM | OVCAR-3 18.9 µM | SNB-75 > 50 µM | SK-MEL-2 > 50 µM

CC(C)(C)c1cc2c3c(c1)c(=O)c1cccc4c(O)c5cccc(c2=O)c5c-3c41
inactive: SR 15.3 µM | SW-620 > 100 µM | U-251 57.7 µM | EKVX > 100 µM | HOP-92 36.6 µM | OVCAR-5 92.5 µM | COLO 205 > 100 µM | SNB-19 > 100 µM | OVCAR-4 > 100 µM | TK-10 > 100 µM | A498 99.1 µM | 786-0 84.7 µM | OVCAR-3 40.4 µM | SNB-75 > 100 µM | SK-MEL-2 24.7 µM

C=C[C@H]1C=Cc2c(OC)cccc2[C@@H]1COP1(=S)NC(C)C(c2ccccc2)O1 (stereo partly specified)
inactive: SW-620 > 100 µM | SK-MEL-5 44.2 µM | U-251 86.3 µM | EKVX > 100 µM | COLO 205 97.3 µM | SNB-19 > 100 µM | OVCAR-4 > 100 µM | TK-10 > 100 µM | 786-0 > 100 µM | OVCAR-3 > 100 µM | SNB-75 > 100 µM

CC1SC2=NC3=C(c4ccccc4C3=O)C(c3ccc(Cl)cc3)N2C1=O (stereo unspecified)
inactive: SW-620 > 100 µM | SK-MEL-5 > 100 µM | U-251 > 100 µM | EKVX > 100 µM | HOP-92 22.3 µM | OVCAR-5 > 100 µM | COLO 205 > 100 µM | SNB-19 > 100 µM | OVCAR-4 61.1 µM | TK-10 > 100 µM | A498 > 100 µM | 786-0 > 100 µM | OVCAR-3 > 100 µM | SNB-75 45.8 µM | SK-MEL-2 > 100 µM

O=C1c2cccc3cccc(c23)C(=O)N1CCCN1CCN(CCCN2C(=O)c3cccc4cccc(c34)C2=O)CC1
inactive: SW-620 > 100 µM | SK-MEL-5 > 100 µM | U-251 > 100 µM | EKVX > 100 µM | HOP-92 > 100 µM | OVCAR-5 > 100 µM | COLO 205 > 100 µM | SNB-19 > 100 µM | OVCAR-4 > 100 µM | TK-10 > 100 µM | A498 > 100 µM | 786-0 > 100 µM | OVCAR-3 > 100 µM | SNB-75 > 100 µM | SK-MEL-2 > 100 µM

O=C(Nc1ccccc1[N+](=O)[O-])c1ccccc1
inactive: SW-620 > 100 µM | SK-MEL-5 > 100 µM | U-251 > 100 µM | EKVX 97.7 µM | HOP-92 65.9 µM | OVCAR-5 > 100 µM | COLO 205 > 100 µM | SNB-19 > 100 µM | OVCAR-4 82.6 µM | TK-10 > 100 µM | A498 > 100 µM | 786-0 > 100 µM | OVCAR-3 > 100 µM | SNB-75 65.3 µM

C/C(=N/NC(=O)C[n+]1ccccc1)C(CN(CC(C)C)CC(C)C)C(=O)Nc1ccc(C)cc1C (stereo unspecified)
inactive: SR > 100 µM | SW-620 > 100 µM | SK-MEL-5 > 100 µM | EKVX 45.1 µM | HOP-92 43.3 µM | OVCAR-5 65.5 µM | COLO 205 > 100 µM | SNB-19 26.7 µM | OVCAR-4 > 100 µM | TK-10 78.2 µM | A498 25.4 µM | 786-0 > 100 µM | SK-MEL-2 > 100 µM

Reference: ChEMBL document CHEMBL1201862, “PubChem BioAssay data set” (2004)
